Results reported in ChEMBL document CHEMBL1201862, “PubChem BioAssay data set” (2004).
“And” between values parts separate entries of the source, which are not always exact repeats. Identical values can stand only once. The source made the active and inactive calls.

Assays:
CAAX prenyl protease 2 [1] = target: T1, CAAX prenyl protease 2 (Saccharomyces cerevisiae S288c, UniProt Q03530); assay type: biochemical
T1 sequence (Q03530 whole entry): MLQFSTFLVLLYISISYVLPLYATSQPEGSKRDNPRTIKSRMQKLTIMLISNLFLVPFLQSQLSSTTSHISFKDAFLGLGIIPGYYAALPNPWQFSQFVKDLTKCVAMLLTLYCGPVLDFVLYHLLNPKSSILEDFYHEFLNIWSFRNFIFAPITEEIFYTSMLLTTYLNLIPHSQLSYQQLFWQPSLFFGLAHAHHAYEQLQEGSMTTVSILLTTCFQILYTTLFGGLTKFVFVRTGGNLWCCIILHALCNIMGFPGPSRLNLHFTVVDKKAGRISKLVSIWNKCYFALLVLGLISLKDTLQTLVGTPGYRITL

CAAX prenyl protease 2 [2] = target: T1, CAAX prenyl protease 2; experiment: inhibition of Rce1p peptide cleavage – biochemical, plate reader, dry powder retest, dose response (AID 588851)
[3] = potency of ADAM10 substrate cleavage blockers – biochemical, QFRET, dose response (AID 743254);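 note: ADAM10 enzyme with the DM2 quenched FRET peptide as substrate; EDANS fluorescence gain as the protease cuts the substrate; inhibitor potency against ADAM10 proteolytic activity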
[4] = target: Disintegrin and metalloproteinase domain-containing protein 17 (Homo sapiens, UniProt P78536); experiment: inhibition of ADAM17 substrate cleavage – biochemical, quenched FRET substrate, counter-screen for ADAM10 exosite inhibitor project, dose response (AID 743253)
Sequence of Disintegrin and metalloproteinase domain-containing protein 17 (P78536 whole entry, the tested form may be a part): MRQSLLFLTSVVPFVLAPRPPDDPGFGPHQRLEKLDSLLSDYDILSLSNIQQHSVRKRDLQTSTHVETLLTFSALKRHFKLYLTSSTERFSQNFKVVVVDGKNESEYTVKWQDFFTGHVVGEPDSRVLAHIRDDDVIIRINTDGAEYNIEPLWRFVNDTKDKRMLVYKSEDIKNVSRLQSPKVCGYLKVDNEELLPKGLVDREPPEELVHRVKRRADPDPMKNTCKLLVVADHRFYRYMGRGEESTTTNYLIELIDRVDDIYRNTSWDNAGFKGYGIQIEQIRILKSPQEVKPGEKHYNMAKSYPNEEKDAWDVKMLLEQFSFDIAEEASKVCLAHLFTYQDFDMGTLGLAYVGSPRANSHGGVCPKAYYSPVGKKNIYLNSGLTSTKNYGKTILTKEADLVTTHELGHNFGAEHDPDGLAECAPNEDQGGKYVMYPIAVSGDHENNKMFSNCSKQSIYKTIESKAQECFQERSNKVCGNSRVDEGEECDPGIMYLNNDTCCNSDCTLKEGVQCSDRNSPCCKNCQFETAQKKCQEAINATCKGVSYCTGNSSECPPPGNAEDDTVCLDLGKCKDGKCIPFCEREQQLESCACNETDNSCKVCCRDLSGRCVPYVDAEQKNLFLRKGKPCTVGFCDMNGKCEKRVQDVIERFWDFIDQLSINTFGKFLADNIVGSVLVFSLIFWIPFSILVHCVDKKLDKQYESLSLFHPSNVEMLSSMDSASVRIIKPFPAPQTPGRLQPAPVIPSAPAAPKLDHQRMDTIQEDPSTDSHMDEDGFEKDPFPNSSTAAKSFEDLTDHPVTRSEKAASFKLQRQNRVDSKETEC

INS1 [5] = experiment: beta-cell survival under cytokine stress – INS-1E, ATP luminescence, dry powder, dose response (AID 488844); assay type: functional, cell-based; details: Rattus norvegicus
INS1 [6] = experiment: suppression of cytokine-induced beta-cell apoptosis – INS-1E, caspase luminescence, dry powder, beta-cell apoptosis inhibitor project, dose response (AID 488848); assay type: functional, cell-based; details: Rattus norvegicus
[7] = suppression of NO production in INS-1E cells – cell-based, Griess absorbance, dry powder, set 3, dose response (AID 488870); assay type: functional; details: Rattus norvegicus
INS1 [8] = experiment: suppression of NO production in INS-1E cells – cell-based, Griess absorbance, dry powder, dose response (AID 488866); assay type: functional; details: Rattus norvegicus
INS1 [9] = experiment: suppression of NO production in INS-1E cells – cell-based, Griess absorbance, dry powder, set 2, dose response (AID 488868); assay type: functional; details: Rattus norvegicus
INS1 [10] = experiment: INS-1E mitochondrial potential rescue under cytokines – cell-based, JC-1 fluorescence ratio, dry powder, dose response (AID 488931); assay type: functional; details: Rattus norvegicus
[11] = Luminescence-based dose response cell-based high throughput screening assay for cytotoxic compounds using the IEC-6 intestinal epithelial cell line. [Related pubchem assays: 1858 (Summary AID.), 1825 (Counterscreen.), 1907 (Confirmation screen.)]; assay type: functional
Exodeoxyribonuclease V = target: T2, Exodeoxyribonuclease V (Escherichia coli (strain K12), UniProt P04993+P07648+P08394); experiment: RecBCD inhibition via phage-restricted bacterial growth – absorbance, V66 E. coli, mutant T4 phage, counter-screen for AddAB inhibitor project, dose response (AID 492957); assay type: functional, cell-based, Escherichia coli str. K-12 substr. MG1655
T2 sequence (P04993 whole entry): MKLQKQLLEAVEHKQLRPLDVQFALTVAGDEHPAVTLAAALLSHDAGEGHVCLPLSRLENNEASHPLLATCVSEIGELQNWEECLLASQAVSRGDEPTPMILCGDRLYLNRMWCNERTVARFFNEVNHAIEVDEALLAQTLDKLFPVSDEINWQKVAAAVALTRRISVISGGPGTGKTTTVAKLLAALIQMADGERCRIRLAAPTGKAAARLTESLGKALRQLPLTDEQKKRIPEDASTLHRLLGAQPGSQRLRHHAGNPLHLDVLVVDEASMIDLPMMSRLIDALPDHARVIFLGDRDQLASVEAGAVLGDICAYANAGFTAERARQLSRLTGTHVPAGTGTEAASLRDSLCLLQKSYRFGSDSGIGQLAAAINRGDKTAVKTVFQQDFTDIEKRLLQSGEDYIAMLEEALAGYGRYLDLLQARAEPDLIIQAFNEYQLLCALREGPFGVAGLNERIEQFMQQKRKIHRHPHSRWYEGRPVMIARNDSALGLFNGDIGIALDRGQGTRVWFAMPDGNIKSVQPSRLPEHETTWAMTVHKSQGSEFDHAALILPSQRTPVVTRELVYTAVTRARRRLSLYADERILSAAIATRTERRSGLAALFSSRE
T2 sequence (P07648 whole entry): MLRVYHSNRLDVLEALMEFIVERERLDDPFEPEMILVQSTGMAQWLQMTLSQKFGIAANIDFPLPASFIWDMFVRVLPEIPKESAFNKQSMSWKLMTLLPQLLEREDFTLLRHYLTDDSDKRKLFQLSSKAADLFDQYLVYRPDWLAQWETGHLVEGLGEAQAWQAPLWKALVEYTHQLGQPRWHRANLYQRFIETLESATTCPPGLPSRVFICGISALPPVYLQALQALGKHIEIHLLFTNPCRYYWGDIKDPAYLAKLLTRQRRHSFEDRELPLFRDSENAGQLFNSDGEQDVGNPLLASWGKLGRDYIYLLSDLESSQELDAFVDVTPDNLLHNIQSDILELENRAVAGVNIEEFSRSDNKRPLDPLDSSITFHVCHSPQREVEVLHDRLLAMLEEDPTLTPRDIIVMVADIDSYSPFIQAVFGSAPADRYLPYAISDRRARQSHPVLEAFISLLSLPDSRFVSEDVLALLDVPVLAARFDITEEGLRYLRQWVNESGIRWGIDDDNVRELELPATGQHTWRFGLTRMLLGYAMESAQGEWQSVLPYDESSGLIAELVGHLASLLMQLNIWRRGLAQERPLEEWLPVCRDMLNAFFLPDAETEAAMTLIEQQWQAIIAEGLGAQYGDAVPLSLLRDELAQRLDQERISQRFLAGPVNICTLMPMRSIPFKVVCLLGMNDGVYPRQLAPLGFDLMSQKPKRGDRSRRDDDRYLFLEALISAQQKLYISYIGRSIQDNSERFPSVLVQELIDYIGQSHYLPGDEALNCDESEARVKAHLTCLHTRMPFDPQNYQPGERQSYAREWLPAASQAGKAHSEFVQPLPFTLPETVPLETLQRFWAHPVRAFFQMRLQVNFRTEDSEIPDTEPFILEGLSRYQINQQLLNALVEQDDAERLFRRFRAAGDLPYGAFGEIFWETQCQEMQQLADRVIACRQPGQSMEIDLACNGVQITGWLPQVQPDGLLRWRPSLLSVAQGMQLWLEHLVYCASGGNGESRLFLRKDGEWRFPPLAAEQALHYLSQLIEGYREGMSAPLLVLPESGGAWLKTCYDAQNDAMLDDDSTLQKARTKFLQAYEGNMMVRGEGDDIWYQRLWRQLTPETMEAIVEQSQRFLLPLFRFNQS
T2 sequence (P08394 whole entry): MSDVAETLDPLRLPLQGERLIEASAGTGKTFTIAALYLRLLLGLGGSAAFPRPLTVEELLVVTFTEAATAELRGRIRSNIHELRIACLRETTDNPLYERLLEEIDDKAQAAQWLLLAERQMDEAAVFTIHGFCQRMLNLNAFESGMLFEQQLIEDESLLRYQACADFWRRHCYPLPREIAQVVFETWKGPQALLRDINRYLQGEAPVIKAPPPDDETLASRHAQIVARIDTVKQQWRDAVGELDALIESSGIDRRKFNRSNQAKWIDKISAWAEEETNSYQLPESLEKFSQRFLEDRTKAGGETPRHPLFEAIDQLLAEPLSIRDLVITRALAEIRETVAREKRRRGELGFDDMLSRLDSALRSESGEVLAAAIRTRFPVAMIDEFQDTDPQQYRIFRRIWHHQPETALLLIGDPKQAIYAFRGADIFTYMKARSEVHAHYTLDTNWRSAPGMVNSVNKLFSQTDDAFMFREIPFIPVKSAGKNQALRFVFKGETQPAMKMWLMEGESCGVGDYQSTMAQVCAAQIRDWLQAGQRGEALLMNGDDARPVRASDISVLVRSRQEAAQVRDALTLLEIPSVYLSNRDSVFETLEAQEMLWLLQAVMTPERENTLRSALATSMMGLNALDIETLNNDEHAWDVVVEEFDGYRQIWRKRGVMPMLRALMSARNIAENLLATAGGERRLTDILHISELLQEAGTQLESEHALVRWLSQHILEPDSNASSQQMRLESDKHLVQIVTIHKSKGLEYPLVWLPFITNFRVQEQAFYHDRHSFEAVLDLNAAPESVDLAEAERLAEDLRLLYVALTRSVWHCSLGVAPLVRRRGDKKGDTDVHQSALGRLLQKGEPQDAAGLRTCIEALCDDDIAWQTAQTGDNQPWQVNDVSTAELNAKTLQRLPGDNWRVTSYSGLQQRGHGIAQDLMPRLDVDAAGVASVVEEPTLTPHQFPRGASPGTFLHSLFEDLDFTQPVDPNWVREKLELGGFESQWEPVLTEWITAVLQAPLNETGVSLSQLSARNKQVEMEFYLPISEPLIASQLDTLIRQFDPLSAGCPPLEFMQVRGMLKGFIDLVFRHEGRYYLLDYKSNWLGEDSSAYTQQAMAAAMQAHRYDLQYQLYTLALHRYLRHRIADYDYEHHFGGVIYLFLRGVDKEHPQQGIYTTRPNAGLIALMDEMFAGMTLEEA

[12] = Luminescence Cell-Based Dose Retest to Confirm Inhibitors of Cancer Stem Cells. [Related pubchem assays (depositor defined):AID2717, AID2721]; assay type: functional; details: Homo sapiens
[13] = HEK-293T cell viability reduction – luminescence, B-cell screen hits, cytotoxicity control for BCR NF-kB inhibitor project, dose response (AID 489021); assay type: functional, cell-based;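 note: HEK-293T cells carrying an NF-kB luciferase reporter; cells exposed to compound for about 14 hours before viability readout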
HEK293 = experiment: EBV LMP1 TES2 canonical NF-kB signalling blockers – cell-based, HEK293, luciferase, cherry-pick, dose response (AID 588343); assay type: functional; details: Homo sapiens
[14] = target: Latent membrane protein 1 (Human herpesvirus 4 (strain B95-8), UniProt P03230); experiment: LMP1 TES1 pathway selectivity over dsRED control – imaging, HEK293T, dual-color eGFP/dsRED, cherry-picks, selectivity assay for LMP1 NF-kB inhibitor project, dose response (AID 588398); assay type: functional, cell-based
Sequence of Latent membrane protein 1 (P03230 whole entry): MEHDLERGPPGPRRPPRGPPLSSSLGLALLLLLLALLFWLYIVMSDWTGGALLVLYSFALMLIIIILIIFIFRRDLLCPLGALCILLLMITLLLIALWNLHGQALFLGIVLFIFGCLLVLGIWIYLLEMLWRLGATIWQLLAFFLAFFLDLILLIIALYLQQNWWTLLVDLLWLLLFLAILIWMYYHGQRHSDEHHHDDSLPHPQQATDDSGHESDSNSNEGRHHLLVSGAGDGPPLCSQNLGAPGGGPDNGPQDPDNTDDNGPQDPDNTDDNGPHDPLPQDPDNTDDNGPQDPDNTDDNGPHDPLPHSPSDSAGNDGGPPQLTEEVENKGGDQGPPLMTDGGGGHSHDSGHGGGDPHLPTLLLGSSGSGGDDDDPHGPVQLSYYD

[15] = CellTiter-Glo luminescence survival assay, SW480 colon tumor line, concentration-response curve, half-maximal inhibitory concentration (AID 1117338); assay type: functional
[16] = SNU-C1 cell viability reduction, dose response, CellTiter-Glo luminescence (AID 1117323); assay type: functional, cell-based
[17] = cytotoxicity toward Colo320 cells – cell-based, CellTiter-Glo luminescence, IC50, dose response (AID 1117334); assay type: functional; details: COLO 320
[18] = cytotoxicity toward HT-29 cells – cell-based, CellTiter-Glo luminescence, IC50, dose response (AID 1117330); assay type: functional
[19] = Reduced DLD-1 viability, concentration-response, CellTiter-Glo luminescence (AID 1117352); assay type: functional

CC(C)c1c(C(=O)N/N=C/c2cccc3ccccc23)nnn1-c1nonc1N
inactive: IC50 [3] > 69.5 µM | IC50 [4] > 69.5 µM
active: AC50 (CAAX prenyl protease 2 [1]) 0.117 µM | AC50 (CAAX prenyl protease 2 [2]) 3.25 µM

COc1ccc(S(=O)(=O)N(C)C[C@@H]2Oc3c(NC(=O)Nc4cccc5ccccc45)cccc3C(=O)N([C@@H](C)CO)C[C@H]2C)cc1C
active: AC50 (INS1 [5]) 0.436 µM | AC50 (INS1 [6]) 0.414 µM | AC50 [7] 34.5 µM | AC50 (INS1 [8]) 45.2 µM | AC50 (INS1 [9]) 25.1 µM | AC50 (INS1 [10]) 4.91 µM

O=c1[nH]c(=O)n([C@H]2C[C@H](O)[C@@H](CO)O2)cc1C(F)(F)F [TRIFLURIDINE]
inactive: IC50 (Exodeoxyribonuclease V) > 118 µM and > 119 µM | IC50 [13] > 80 µM | IC50 [15] > 20 µM | IC50 [16] > 20 µM | IC50 [17] > 20 µM | IC50 [18] > 20 µM | IC50 [19] > 20 µM
active: IC50 [11] 1.75 µM | AC50 [12] 1.66 µM | AC50 (HEK293) 3.28 µM | AC50 [14] 1.13 µM
